Results taken from patent publication US6031093A, “Solid salts of clavulanic acid” (SmithKline Beecham p.l.c., priority 1995, dated 2000).
Entries after “also recorded” stand apart in the source; their conditions may differ. Structures can show the parent of a compound that is named as a salt. Where two headings read alike, the source gives them in different places.

How the values were obtained:
[1] = target: T1, β-lactamase produced by Escherichia coli JT4 (Escherichia coli, UniProt P62593); experiment: β-lactamase inhibition assay (Description 1); assay type: biochemical
T1 construct: the cell debris was removed by centrifugation and aliquots of the supernatant stored deep frozen; endogenous in cells; host or cells: Escherichia coli JT4 (R factor), ultrasonic extract
T1 sequence (P62593 24-286 limits assumed): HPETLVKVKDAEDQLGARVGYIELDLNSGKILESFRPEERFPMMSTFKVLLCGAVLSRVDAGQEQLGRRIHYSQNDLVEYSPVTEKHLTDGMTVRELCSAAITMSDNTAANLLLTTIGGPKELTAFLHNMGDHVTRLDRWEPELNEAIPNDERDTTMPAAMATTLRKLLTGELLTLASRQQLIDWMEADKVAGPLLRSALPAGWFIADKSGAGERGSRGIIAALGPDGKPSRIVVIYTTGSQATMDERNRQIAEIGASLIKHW
Description: Solutions containing clavulanic acid (culture filtrate, samples from isolation procedure and the like) are incubated for 15 minutes with a β-lactamase preparation in 0.05M phosphate buffer at pH 7 and 37° C. During this time, enzyme inhibition or inactivation occurs. Substrate (benzylpenicillin) is then added and incubation continued for 30 minutes at 37° C. The amount of enzymic degradation of the substrate to penicilloic acid is determined by the hydroxylamine assay for penicillin. The amount of β-lactamase used is such as to give 75% hydrolysis of the benzylpenicillin in 30 minutes at 37° C.
The extent of hydrolysis is a reflection of the amount of enzyme remaining uninhibited.
The β-lactamase produced by Escherichia coli JT4 is used as an enzyme.
The culture maintained on nutrient agar slopes, is inoculated into 400 ml. of sterile Tryptone medium contained in a 2 liter conical flask. This medium has the following composition Tryptone (Oxoid) 32 g/l, yeast extract (Oxoid) 20 g/l, Nacl 5 g/l and Cacl2 6H2 O 2.2 g/l. […]
Suitable dilutions of the inhibitor preparation and β-lactamase solution are mixed and incubated at 37° C. for 15 minutes (Test). […] The absorption of the final solutions is measured in an E.E.L. Colorimeter or a Spectrophotometer at 490 nm against the reagent blank.
The percentage inhibition of the β-lactamase is calculated as follows- - […]

Stability in human blood = assay type: in vitro ADME
[2] = tested on: Staphylococcus aureus (Russell); experiment: Synergism of clavulanic acid methyl ester (M.I.C.); assay type: cell-based; conditions: in the presence of 1.0 μg/ml. clavulanic acid methyl ester
Enterobacter cleacea = experiment: Antibacterial spectrum, microtitre method (MIC); assay type: cell-based; conditions: read-out: Minimum Inhibitory Concentration
Enterohacter cloacae = experiment: Antibacterial synergism, microtitre method (MIC); assay type: cell-based; conditions: read-out: Minimum Inhibitory Concentration, agent alone
Staphylococcus = experiment: Antibacterial synergism, microtitre method (MIC); assay type: cell-based
[3] = tested on: Staphylococcus aureus (Russell); experiment: Antibacterial synergism, microtitre method (MIC); assay type: cell-based; conditions: Table 6
Klebsiella aerogenes A = experiment: Antibacterial synergism, microtitre method (MIC); assay type: cell-based
[4] = tested on: Klebsiella aerogenes E 70; experiment: Antibacterial synergism, microtitre method (MIC); assay type: cell-based
Klebsiella aerogenes 62 = experiment: Antibacterial synergism, microtitre method (MIC); assay type: cell-based
[5] = Hydrolysis of ester to clavulanic acid in pH 7 buffer; assay type: physicochemical; conditions: buffered to pH 7 (0.05M phosphate, 37° C., 1 mg/ml, 2 hours in Example 29)
Description: The reaction was followed by paper chromatography (bioautographic system). Using the butanol/ethanol/water system to follow the reaction over a period of 2 hours the zone of the methyl ester at Rf 0.79 decreased in size as the zone of clavulanic acid at Rf 0.12 increased.

Klebsiella acrogenes A = experiment: Growth inhibition and synergism; assay type: cell-based, Klebsiella aerogenes; conditions: 5 μg/ml. of clavulanic acid also present
[6] = +5 μg/ml benzyl ester of clavulanic acid
[7] = +5 μg/ml methyl ester of clavulanic acid

O=C(O)[C@H]1/C(=C/CO)O[C@@H]2CC(=O)N21 [clavulanic acid, Z-(2R,5R)-3-(β-hydroxyethylidene)-7-oxo-4-oxa-1-azabicyclo[3,2,0]heptane-2-carboxylic acid]
mode of β-lactamase inhibition [1]: progressively and irreversibly inhibits
stability in human blood (Stability in human blood): high stability

O=C(Cc1cccs1)N[C@@H]1C(=O)N2C(C(=O)[O-])=C(C[n+]3ccccc3)CS[C@H]12 [cephaloridine]
M.I.C. of antibiotic in presence of synergist [2]: < 0.03 µg/mL

O=C(O)[C@H]1/C(=C/CO)O[C@@H]2CC(=O)N21 [clavulanic acid sodium salt, 3-(β-hydroxyethylidine)-7-oxo-4-oxa-1-azabicyclo [3,2,0]heptane-2-carboxylic acid sodium salt]
MIC (Enterobacter cleacea): 62 µg/mL
MIC (Enterohacter cloacae): 62 µg/mL
MIC (Staphylococcus; read-out: Minimum Inhibitory Concentration, agent alone): 62 µg/mL
Minimum Inhibitory Concentration, agent alone [3]: 15 µg/mL

CC1(C)S[C@@H]2[C@H](NC(=O)[C@H](N)c3ccccc3)C(=O)N2[C@H]1C(=O)O [ampicillin]
MIC of Ampicillin + 5 μg/ml of Benzyl Ester of clavulanic acid (Klebsiella aerogenes A; [6]): 1.9 µg/mL
MIC of Ampicillin + 5 μg/ml of Methyl Ester of clavulanic acid (Klebsiella aerogenes A; [7]): 1.9 µg/mL
MIC (Staphylococcus; alone, inoculum 0.5×10^-2, read-out: Minimum Inhibitory Concentration, agent alone): 250 µg/mL
MIC of Ampicillin + 5 μg/ml of Benzyl Ester of clavulanic acid [4, 6]: 3.9 µg/mL
MIC of Ampicillin + 5 μg/ml of Methyl Ester of clavulanic acid [4, 7]: 3.9 µg/mL
MIC of Ampicillin + 5 μg/ml of Benzyl Ester of clavulanic acid (Klebsiella aerogenes 62; [6]): 3.9 µg/mL
MIC of Ampicillin + 5 μg/ml of Methyl Ester of clavulanic acid (Klebsiella aerogenes 62; [7]): 3.9 µg/mL

COC(=O)[C@H]1/C(=C/CO)O[C@@H]2CC(=O)N21 [clavulanic acid methyl ester]
hydrolysis of ester to clavulanic acid [5]: slowly hydrolyse to clavulanic acid; also recorded: Slow conversion of the ester to clavulanic acid

CC1(C)S[C@@H]2[C@H](NC(=O)C(C(=O)O)c3ccccc3)C(=O)N2[C@H]1C(=O)O (some centres unmarked) [carbenicillin]
concentration of penicillin inhibiting growth (Klebsiella acrogenes A): less than 12.5 μg/ml

CC1(C)S[C@@H]2[C@H](NC(=O)Cc3ccccc3)C(=O)N2[C@H]1C(=O)O [benzylpenicillin]
concentration of penicillin inhibiting growth (Klebsiella acrogenes A): less than 12.5 μg/ml
